The results in this text go back to patent publication US20140221475A1, “PLATINUM(IV) COMPLEXES AND PHARMACEUTICAL COMPOSITION CONTAINING THE SAME” (UNITECH CO., LTD., priority 2011, published 2014).

Holding throughout (assay type): cell-based
Assay [1] concerns human gastric cancer cell (KATO III). The assay can be described thus: Cell proliferation inhibition, MTS method, human gastric cancer cell KATO III. The procedure:
(§1) The test solution was prepared by dissolving the (compound 1) into the DMSO (dimethylsulfoxide) with the concentration of 8 mg/ml.
(§2) The test was implemented by using the human lung cancer cell (LU99), two kind of the human gastric cancer cell (KATO III, MKN-45), the human prostate cancer cell (DU145), the human malignant melanoma cell (G-361), the human bladder cancer cell (T24), two kind of the human lymphoma cell (U937, Jurkat E6.1) and the human leukemia cell (HL60) as the cancer cell.
(§3) These cells were suspended in the each culture medium that the serum of 10% was added, and were dispensed in 96-well plate. And then, these were cultured in 5% CO2 at 37 degrees centigrade during a night. The test solution was prepared in the culture medium to the various concentrations, and was dispensed into the plate that the cells were set preliminarily. And further, these were cultured in 5% CO2 at 37 degrees centigrade for three days.
(§4) The cell proliferation after the medicine addition was measured on the 3rd day from the 1st day after the medicine addition by the MTS method (Kit for cell proliferation test manufactured by Promega Company, Cell Titer 96 Aqueous One Solution Cell Proliferation Assay).
(§5) The inhibition rate (%) of the cell proliferation was obtained from the measured MTS value by the following formula.
(§6) Inhibition rate(%)=(1−MTS value of medicine addition group/MTS value of medicine non-addition group)×100
(§7) Because the value which was obtained by the above-mentioned formula represents the inhibition rate of the cell proliferation, the higher the numerical value is, the higher the medicine effect is. It is deemed that the one whose value is 50% or more has the medicine effect.
(§8) The (compound 2) was prepared as the test solution, and the inhibition rate of the cell proliferation was measured by the method similar to the embodiment 7.

The subject of assay [2] is human lymphoma cell (U937). Description: Cell proliferation inhibition, MTS method, human lymphoma cell U937. The procedure:
as §1, §2, §3, §4, §5, §6, §7, §8
Background: Tetrazolium assays rely on reduction of a dye to a coloured formazan, in cell work by metabolically active cells.

Assay [3] concerns human lymphoma cell (Jurkat E6.1). Description: Cell proliferation inhibition, MTS method, human lymphoma cell Jurkat E6.1. The procedure: as §1, §2, §3, §4, §5, §6, §7
Assay [4] deals with human leukemia cell (HL60). The assay can be described thus: Cell proliferation inhibition, MTS method, human leukemia cell HL60. The procedure: as §1, §2, §3, §4, §5, §6, §7
Assay [5] concerns human prostate cancer cell (DU145). Description: Cell proliferation inhibition, MTS method, human prostate cancer cell DU145. The procedure:
as §2, §3, §4, §5, §6, §7, §8

In assay [6] the test system is human bladder cancer cell (T24). The assay can be described thus: Cell proliferation inhibition, MTS method, human bladder cancer cell T24. The protocol:
as §2, §3, §4, §5, §6
Because the value which was obtained by the above-mentioned formula represents the inhibition rate of the cell proliferation, the higher the numerical value is, the higher the medicine effect is. It is deemed that the one whose value is 50% or more has the medicine effect. […]

The test system of assay [7] is human lung cancer cell (LU99). Description: Cell proliferation inhibition, MTS method, human lung cancer cell LU99. The procedure:
as §2, §3, §4, §5, §6, §7
(§9) The (compound 5) was prepared as the test solution, and the inhibition rate of the cell proliferation was measured by the method similar to the embodiment 7.
(§10) The (compound 6) was prepared as the test solution, and the inhibition rate of the cell proliferation was measured by the method similar to the embodiment 7.

Assay [8] relates to human gastric cancer cell (MKN-45). Description: Cell proliferation inhibition, MTS method, human gastric cancer cell MKN-45. The procedure: as §2, §3, §4, §5, §6, §7, §9, §10
The test system of assay [9] is human malignant melanoma cell (G-361). Description: Cell proliferation inhibition, MTS method, human malignant melanoma cell G-361. The protocol:
as §2, §3, §4, §5, §6, §7, §9, §10

For the molecule `NC1CCCC12CCCC2N.O=C1CC(=O)[O][Pt]([Cl])([Cl])[O]1` [Compound 1, dichloromalonato((1S,5S,6S)-spiro[4.4]nonane-1,6-diamine)platinum(IV)], the “Inhibition rate of cell proliferation after 3 days from medicine addition” value (shortened to “Inhibition rate of cell proliferation”) in [1] (5 μg/ml) is reported as 53%; in assay [1] (10 μg/ml) it was 75%; in assay [1] (20 μg/ml) it was 88%; in assay [2] (U937, 5 μg/ml) it was 98%; in assay [2] (U937, 10 μg/ml), 102%; in [2] (U937, 20 μg/ml), 101%. The “Inhibition rate of cell proliferation” value was 92% in [3] (Jurkat E6.1, 5 μg/ml); 97% in [3] (Jurkat E6.1, 10 μg/ml); 100% in assay [3] (Jurkat E6.1, 20 μg/ml); 91% in assay [4] (HL60, 5 μg/ml); 97% in assay [4] (HL60, 10 μg/ml); 99% in [4] (HL60, 20 μg/ml).

As for `NC1CCCC12CCCC2N.O=C1CC(=O)[O][Pt]([Cl])([Cl])[O]1` [Compound 2, Dichloro complexes (G) of the malonato((R,R,R)-spiro[4,4]nonane-1,6-diamine)platinum(IV)], the “Inhibition rate of cell proliferation” value in [1] (5 μg/ml) was 78%; in assay [1] (10 μg/ml) it was 90%; in assay [1] (20 μg/ml) it was 82%; in assay [2] (U937, 5 μg/ml), 100%; in assay [2] (U937, 10 μg/ml), 100%; in assay [2] (U937, 20 μg/ml), 100%. Also, the “Inhibition rate of cell proliferation” value in assay [5] (DU145, 5 μg/ml) amounted to 51%; in assay [5] (DU145, 10 μg/ml) it was 76%; in assay [5] (DU145, 20 μg/ml), 84%; in assay [6] (T24, 5 μg/ml), 52%; in assay [6] (T24, 10 μg/ml) it was 77%; in assay [6] (T24, 20 μg/ml), 87%.

For `NC1CCCC12CCCC2N.[Cl][Pt]([Cl])([Cl])[Cl]` [Compound 5, Tetrachloro((S,S,S)-spiro[4.4]nonane-1,6-diamine)platinum(IV)], the “Inhibition rate of cell proliferation” value in assay [6] (T24, 5 μg/ml) is listed as 79%; in assay [6] (T24, 10 μg/ml) it was 86%; in assay [6] (T24, 20 μg/ml), 80%; in [7] (LU99, 5 μg/ml), 65%; in assay [7] (LU99, 10 μg/ml), 84%; in assay [7] (LU99, 20 μg/ml), 91%. Also, the “Inhibition rate of cell proliferation” value in assay [8] (MKN-45, 5 μg/ml) is 90%; in assay [8] (MKN-45, 10 μg/ml), 93%; in assay [8] (MKN-45, 20 μg/ml) it was 87%; in assay [9] (G-361, 5 μg/ml), 83%; in [9] (G-361, 10 μg/ml), 95%; in assay [9] (G-361, 20 μg/ml), 98%.

As to `NC1CCCC12CCCC2N.[Cl][Pt]([Cl])([Cl])[Cl]` [Compound 6, tetrachloro((R,R,R)-spiro[4.4]nonane-1,6-diamine)platinum(IV)], the “Inhibition rate of cell proliferation” value was determined as 78% in assay [6] (T24, 5 μg/ml); 81% in assay [6] (T24, 10 μg/ml); 81% in assay [6] (T24, 20 μg/ml); 89% in assay [7] (LU99, 5 μg/ml); 96% in [7] (LU99, 10 μg/ml); 98% in assay [7] (LU99, 20 μg/ml). Moreover, the “Inhibition rate of cell proliferation” value turned out to be 88% in [8] (MKN-45, 5 μg/ml); 80% in assay [8] (MKN-45, 10 μg/ml); 76% in [8] (MKN-45, 20 μg/ml); 89% in [9] (G-361, 5 μg/ml); 96% in [9] (G-361, 10 μg/ml); 98% in [9] (G-361, 20 μg/ml).

In the case of `O=C1[O][Pt]2([NH][C@@H]3CCCC[C@H]3[NH]2)[O]C1=O` [Oxaliplatin, oxaliplatin, reference compound], the “Inhibition rate of cell proliferation” value in [1] (5 μg/ml) is listed as 58%; in assay [1] (10 μg/ml), 75%; in assay [1] (20 μg/ml) it was 87%; in assay [2] (U937, 5 μg/ml), 67%; in assay [2] (U937, 10 μg/ml), 90%; in assay [2] (U937, 20 μg/ml) it was 99%. The “Inhibition rate of cell proliferation” value is recorded as 90% in [3] (Jurkat E6.1, 5 μg/ml); 94% in assay [3] (Jurkat E6.1, 10 μg/ml); 97% in assay [3] (Jurkat E6.1, 20 μg/ml); 73% in assay [4] (HL60, 5 μg/ml); 86% in assay [4] (HL60, 10 μg/ml); 93% in assay [4] (HL60, 20 μg/ml). In addition, the “Inhibition rate of cell proliferation” value in assay [5] (DU145, 5 μg/ml) is 46%; in [5] (DU145, 10 μg/ml) it was 71%; in assay [5] (DU145, 20 μg/ml) it was 81%; in assay [6] (T24, 5 μg/ml), 38%; in assay [6] (T24, 10 μg/ml), 43%; in [6] (T24, 20 μg/ml), 48%. For the same molecule, the “Inhibition rate of cell proliferation” value in assay [7] (LU99, 5 μg/ml) came out at 38%; in [7] (LU99, 10 μg/ml), 40%; in assay [7] (LU99, 20 μg/ml), 49%; in [8] (MKN-45, 5 μg/ml), 73%; in [8] (MKN-45, 10 μg/ml), 82%; in [8] (MKN-45, 20 μg/ml) it was 87%. The “Inhibition rate of cell proliferation” value is recorded as 50% in assay [9] (G-361, 5 μg/ml); 59% in [9] (G-361, 10 μg/ml); 74% in [9] (G-361, 20 μg/ml).
